Test results as given in patent publication US9630894B2, “Energy efficient method and apparatus for the extraction of biomolecules from dilute aqueous solution” (DYNASEP INC., priority 2012, dated 2017).
“Also recorded” adds a separate entry of the source.

Tests used:
fermentation cultures [1] = assay: DME toxicity study: viability by colony forming units (CFU) after 24 hours; format: cell-based
Description: (§1) Toxicity studies were performed to determine the effects of DME on fermentation cultures. Cell growth, viability and solvent production were measured to determine what effect DME has on fermentation cultures. Cell growth was monitored by absorption measurements taken at 600 nm (A600). Viability was measured by counting the colony forming units (CFU) after 24 hours. Solvent production was quantified by HPLC.
(§2) The first round of testing was performed using media that had been sparged with DME gas at 23° C. The amount of DME absorbed into the media was measured by weight gain after sparging. […] Two control cultures were also used for direct comparison of cultures with and without the presence of DME.

fermentation cultures [2] = assay: DME toxicity study: solvent production / metabolite analysis by HPLC; format: cell-based; conditions: for Acetate concentration / Acetoin concentration / Acetone concentration / Butanol concentration / Butyrate concentration / Ethanol concentration / Glucose concentration: 196 hours after inoculation
Description: as §1, §2
A second round of testing was performed at lower DME concentrations. The concentration of DME varied from 0.7 wt. % to 2.9 wt. %. Cell densities were measured between 3 and 64 hours after inoculation. […] Based on the solvent measurements in Table 8 and Table 9 solvent production was also unaffected by DME at 0.7 wt. %. […] This is apparent after examination of the cell density and solvent production for samples 1-5, 2-1, 2-4 and 2-5 in comparison to the control samples 1-B and 2-B.

[3] = DME saturation concentration in fermentation broth; format: physicochemical; conditions: fermentation conditions of 38° C.
[4] = cited from earlier work
[5] = culture 2-1, weight % DME printed as ?

## COC [DME, dimethyl ether]
Fermentation cultures [1]; DME approximately 3 wt. %, cultures 1-2 and 1-3
  effect on cell viability (CFU): not toxic
Fermentation cultures [1]; DME approximately 4 wt. %, second set of cultures
  effect on cell viability (CFU): toxicity issues
Fermentation cultures [1]; culture 1-1, […] DME
  CFU/ml after 24 hours: 770 CFU/ml
Fermentation cultures [1]; culture 1-2, 3.48% DME
  CFU/ml after 24 hours: >10000 CFU/ml
Fermentation cultures [1]; culture 1-3, […] DME
  CFU/ml after 24 hours: 200000 CFU/ml
Fermentation cultures [1]; [5]
  CFU/ml after 24 hours: 0 CFU/ml
Fermentation cultures [1]; culture 2-2, 3.92% DME
  CFU/ml after 24 hours: 4480 CFU/ml
Fermentation cultures [1]; culture 2-3, 3.72% DME
  CFU/ml after 24 hours: 130 CFU/ml
Fermentation cultures [2]; DME at 0.7 wt. %
  effect on solvent production: unaffected; also recorded: no noticeable effect
Fermentation cultures [2]; culture 1-2, 3.48% DME
  Metabolite conc. Final Acetate: 42.01 mM
  Metabolite conc. Final Acetoin: 0.00 mM
  Metabolite conc. Final Acetone: 0.00 mM
  Metabolite conc. Final Butanol: 0.00 mM
  Metabolite conc. Final Butyrate: 101.72 mM
  Metabolite conc. Final Ethanol: 0.00 mM
  Metabolite conc. Final Glucose: 410.70 mM
Fermentation cultures [2]; culture 1-2, DME 18.1 g/L
  Acetate concentration: 45.7 mM
  Acetoin concentration: 1.7 mM
  Acetone concentration: 4.9 mM
  Butanol concentration: 11.7 mM
  Butyrate concentration: 80.8 mM
  Ethanol concentration: 1.9 mM
  Glucose concentration: 381.5 mM
Fermentation cultures [2]; culture 1-3, […] DME
  Metabolite conc. Final Acetate: 47.46 mM
  Metabolite conc. Final Acetoin: 0.00 mM
  Metabolite conc. Final Acetone: 8.33 mM
  Metabolite conc. Final Butanol: 14.84 mM
  Metabolite conc. Final Butyrate: 89.52 mM
  Metabolite conc. Final Ethanol: 0.00 mM
  Metabolite conc. Final Glucose: 380.17 mM
Fermentation cultures [2]; [5]
  Metabolite conc. Final Acetate: 33.46 mM
  Metabolite conc. Final Acetoin: 0.00 mM
  Metabolite conc. Final Acetone: 0.00 mM
  Metabolite conc. Final Butanol: 0.00 mM
  Metabolite conc. Final Butyrate: 94.00 mM
  Metabolite conc. Final Ethanol: 0.00 mM
  Metabolite conc. Final Glucose: 432.02 mM
Fermentation cultures [2]; culture 2-2, 3.92% DME
  Metabolite conc. Final Acetate: 42.17 mM
  Metabolite conc. Final Acetoin: 0.00 mM
  Metabolite conc. Final Acetone: 0.00 mM
  Metabolite conc. Final Butanol: 0.00 mM
  Metabolite conc. Final Butyrate: 91.28 mM
  Metabolite conc. Final Ethanol: 0.00 mM
  Metabolite conc. Final Glucose: 418.43 mM
Fermentation cultures [2]; culture 2-2, DME 6.8 g/L
  Acetone concentration: 10.2 mM
  Butanol concentration: 23.6 mM
  Butyrate concentration: 55.7 mM
  Ethanol concentration: 3.8 mM
Fermentation cultures [2]; culture 2-3, 3.72% DME
  Metabolite conc. Final Acetate: 34.46 mM
  Metabolite conc. Final Acetoin: 0,00 mM
  Metabolite conc. Final Acetone: 0.00 mM
  Metabolite conc. Final Butyrate: 86.91 mM
  Metabolite conc. Final Ethanol: 0.00 mM
Fermentation cultures [2]; culture 2-3, DME 6.6 g/L
  Acetate concentration: 44.6 mM
  Acetoin concentration: 5.6 mM
  Acetone concentration: 9.6 mM
  Butanol concentration: 21.6 mM
  Butyrate concentration: 57.3 mM
  Ethanol concentration: 3.8 mM
  Glucose concentration: 338.3 mM
Fermentation cultures [2]; culture 2-4, DME 29.1 g/L
  Acetate concentration: 42.5 mM
  Acetoin concentration: 0.0 mM
  Acetone concentration: 2.1 mM
  Butanol concentration: 3.7 mM
  Butyrate concentration: 94.8 mM
  Ethanol concentration: 0.0 mM
  Glucose concentration: 403.0 mM
Fermentation cultures [2]; culture 2-5, DME 27.9 g/L
  Acetate concentration: 41.7 mM
  Acetoin concentration: 0.0 mM
  Acetone concentration: 4.3 mM
  Butanol concentration: 7.2 mM
  Butyrate concentration: 94.5 mM
  Ethanol concentration: 0.0 mM
  Glucose concentration: 396.9 mM
Fermentation cultures [2]; cultures containing DME, 3 to 4 wt. %
  effect on solvent production: greatly reduced
[3]
  amount of DME in the broth (saturation): ~2.3 wt. %
[4]
  solubility in water: approximately 20 wt. %
